Measured values published in US20190008440A1, “Method and device to investigate or treat painful neuropathy” (priority 2017, published 2019).

What was measured:
[1] = cited from earlier work
A delta nociceptors = test: Laser pin prick pain threshold (A delta fibers) of healthy volunteer after topical capsaicin; format: in vivo, human; conditions: beam 1 mm, 20 minutes after topical capsaicin on skin
From the text: The following is a description a typical test procedure utilizing the present invention with the application of protocol Example 1 for healthy volunteers and pain patients:
Step 1: Preparing volunteer for test. The volunteers were asked to respond to stimuli after each stimulus was applied, and describing the level and type of evoked sensation, location of sensation, how long the sensation lasts, whether the sensation was single (monomodal) or if more than one sensation were evoked by stimulation.
Step 2: The level of power of laser was adjusted to skin type of volunteer and irradiated spot was selected as close as possible to A-delta receptors.
Collimated beam with diameter 2 mm, within range of power 5.0-10.0 W and pulse duration 100 ms is applied to an investigated area of skin to determine the individual sensitivity and to map the location of A delta nociceptors. The power is increased with step 0.5 W until the first sensation is evoked. After that, the pulse power is fixed and the position of the irradiated spot is scanned (tuned) within an XY frame 5 mm×5 mm to find the location of the nociceptor and pulse power is applied for each new location with spatial steps of around 0.5 mm for fingertips.
The inter-stimulus time was at least 20 sec. The first appeared sensation was rated by the volunteer as barely pricking pain without any other sensations of warmth or hot pain.
After the location of receptors were determined, the summation curve—Power of Pain Threshold vs. Pulse Duration were measured by the following procedure: • 1) Collimated beam was adjusted to 1 mm, • 2) Duration of pulse set up to 50 ms and pulse power was increased from 2 W until volunteer reported about first appeared sensation. • 3) Afterwards, power was increased until volunteer reported that sensation became clearly painful, but decreasing of power of stimulus on 5-10% leads to the disappearance of pain. • 4) Afterward, the power threshold was measured for 50 ms pulse duration was increased by step 50 ms and procedure measurement of threshold was repeated. The increment of power was 0.1 W.
The healthy volunteer was tested with pulse durations from 50 ms to 300 ms and beam size of 1 mm. The volunteer reported what around 200-300 ms, they felt on the same level of power firstly warmth and after that pricking pain but for pulses within range 50-150 ms, only single (monomodal) pricking pain was discerned. The sensations were sharp and disappeared in a few seconds after stimulation. The next stimulus was applied not earlier than 20 sec or after the disappearance of painful sensation of previous stimulus.
The thresholds of pin prick pain of healthy volunteers were measured in 20 minutes after topical analgesic (capsaicin) was applied on skin. The Steps 2, 3 and 4 were repeated.

A delta and C fibers = test: Skin biopsies processed with PGP 9.5 biomarker, integral fiber density of A delta and C fibers in epidermis and dermis; format: in vivo, human; conditions: biopsies 7 days after treatment with 8% capsaicin patch
From the text: In 7 days after treatment additional biopsies from laser and capsaicin treated areas together with control were taken and “blindly” processed with PGP 9.5 biomarker to determine the integral fiber density of the A delta and C fibers in epidermis and dermis.

C fibers = test: Laser threshold pulse duration for hot pain (stimulation of C fibers), hairy skin of left hand; format: in vivo, human
Protocol: Subjects: A chronic pain patient with hypersensitivity and a healthy volunteer were tested. Both subjects gave informed consent and the experiments were approved by the local institutional review board. The hairy skin of left hand was used for both volunteers. In preparing the subjects testing, they were asked to respond orally immediately after they perceived any threshold sensation and/or to interrupt lasing pulse by pressing STOP button. They then described the level and type of evoked sensation, location of sensation, how long the sensation lasted, whether the sensation was single (monomodal) sensation or if there were more than one evoked sensations by a single stimulation. Afterwards, the threshold pulse was applied 3 times to different areas with interval of {tilde over ( )}3 min or after the previous sensation (pain) had disappeared. The appearance redness was an indication of skin irritation.
Step 1: To test duration of pulse that evoked threshold warmth sensation only, the output power was set to 1.5 W, beam size adjusted to 5 mm. The pulse was applied to the skin. When the volunteer reported warmth (pain) sensation the lasing was stopped. […]
The laser radiation was stopped by volunteer. […] When this button was pushed the command “stop lasing” was activated, duration of applied pulse was measured and it was indicated on the screen of PC connected to the device by RS232 interface. […]

C fiber mediated pain = conditions: in vivo; cited from earlier work

SMILES | residual time ([1]; capsaicin solution used to stimulate neurogenic flare) | duration of capsaicin induced flare ([1]; in vivo) | residual time of capsaicin in the skin ([1]; patch application) | Power of Pain Thresholds of Healthy Volunteer (Capsaicin) (A delta nociceptors; pulse duration 50 ms, untreated healthy volunteer 9.5 W) | Power of Pain Thresholds of Healthy Volunteer (Capsaicin) (A delta nociceptors; pulse duration 100 ms, untreated healthy volunteer 4.5 W) | Power of Pain Thresholds of Healthy Volunteer (Capsaicin) (A delta nociceptors; pulse duration 150 ms, untreated healthy volunteer 3.2 W) | Power of Pain Thresholds of Healthy Volunteer (Capsaicin) (A delta nociceptors; pulse duration 200 ms, untreated healthy volunteer 2.8 W) | Power of Pain Thresholds of Healthy Volunteer (Capsaicin) (A delta nociceptors; pulse duration 300 ms, untreated healthy volunteer 2.5 W) | fiber density below control (A delta and C fibers) | threshold pulse duration, hot pain (C fibers; power 1.5 W, beam 5 mm, healthy volunteer affected topical capsaicin, stop button, untreated healthy volunteer 1300 ms) | effect on thresholds of warmth sensation and hot/burning pain (C fibers; topical capsaicin) | inhibition of C fiber mediated pain vs A delta fiber mediated pain (C fiber mediated pain)
COc1cc(CNC(=O)CCCC/C=C/C(C)C)ccc1O [capsaicin] | over 48 hours | over several hours | 48 h | 14.8 W | 7.0 W | 5 W | 4.3 W | 3.9 W | 10 to 20% | 800 ms | decreases the thresholds of warmth sensation and hot/burning pain | –
CN1CC[C@]23c4c5ccc(O)c4O[C@H]2[C@@H](O)C=C[C@H]3[C@H]1C5 [morphine] | – | – | – | – | – | – | – | – | – | – | – | much more effective in inhibiting C fiber mediated pain than A delta fiber mediated pain
